In assay [1] the test system is HIV-1IIIB infected MT-4 cells. As to the kind of experiment: Antiviral activity in HIV-1IIIB infected MT-4 cells, MTT method (Test Examples 1 and 5). The format is cell-based. The settings on record: Human immunodeficiency virus 1, MT4; as in Test Example 1; Table 5; read-out: HIV Activity EC50. As to the method: Immediately after infection, HIV-1IIIB infected MT-4 cells (3.0×10^4/well, MOI (Multiplicity of infection): 0.01) were added to a 96-well microtiter plate together with the test compounds having different concentrations. The cells were cultured in a carbon dioxide incubator at 37° C. for 5 days, and the number of living cells was measured in accordance with the MTT (tetrazolium) method (Pawels, et al., Journal of Virology Method, 20, 309-321 ([…])). The antiviral activity is represented by the concentration required for inhibition of cell disorder due to HIV by 50% (EC50: 50% Effective Concentration) (μM), and the results are shown in Table 2.
(§1) Compounds of the present invention having various substituted and unsubstituted heterocyclic rings for the substituent A2 of formula (1) were tested for antiviral (anti-HIV) activity as in Test Example 1 and for CXCR4 activity as in Test Example 2. The compounds, various substituents of the compounds, antiviral activity represented by the concentration required for inhibition of all disorder due to HIV injection by 50% (EC50: 50% Effective Concentration, μM), and CXCR4 activity calculated as a rate of inhibition of the binding between radioactive ligands and CXCR4 receptors by a test material (a binding-inhibition % at 0.1 μM) are shown in Table 5: […]
(Tetrazolium assays rely on reduction of a dye to a coloured formazan, in cell work by metabolically active cells.)

For a further assay, the target named is T1, CXCR4 (Homo sapiens, UniProt P61073).
T1 construct: endogenous in cells; host or cells: MT-4 cells
Nature of the assay: Inhibition of 125I-SDF-1α binding to receptors CXCR4 on MT-4 cells (Test Examples 2 and 5). The conditions noted are these: binding-inhibition % at 0.1 μM, as in Test Example 2; Table 5; read-out: CXCR4 Activity % at 0.1 μM. The procedure:
MT-4 cells (5×10^6/0.2 ml/well) were cultured on a 24-well microtiter plate. After the cells were incubated for 24 hours at 37° C. in a carbon dioxide gas incubator, a culture medium was replaced with a buffer solution (0.1% BSA-containing RPMI-1640). Together with a ligand ^125I-SDF-1α, (specific activity: 2,200 Ci/mmol; available from Daiichi Pure Chemicals Co., Ltd. (Tokyo)), test materials with various concentrations were subjected to a binding reaction for 2 hours under ice-cooling. […] Then, a rate of inhibition of the binding between radio-active ligands and receptors CXCR4 by a test material was calculated (a binding-inhibition % at 0.1 μM).
as §1

Each structure is given as a SMILES string. pEC50: −log10 of the molar value.

Broadly, the pEC50 is the negative decadic logarithm of the EC50, by convention in mol/L.

T1 sequence (P61073 whole entry): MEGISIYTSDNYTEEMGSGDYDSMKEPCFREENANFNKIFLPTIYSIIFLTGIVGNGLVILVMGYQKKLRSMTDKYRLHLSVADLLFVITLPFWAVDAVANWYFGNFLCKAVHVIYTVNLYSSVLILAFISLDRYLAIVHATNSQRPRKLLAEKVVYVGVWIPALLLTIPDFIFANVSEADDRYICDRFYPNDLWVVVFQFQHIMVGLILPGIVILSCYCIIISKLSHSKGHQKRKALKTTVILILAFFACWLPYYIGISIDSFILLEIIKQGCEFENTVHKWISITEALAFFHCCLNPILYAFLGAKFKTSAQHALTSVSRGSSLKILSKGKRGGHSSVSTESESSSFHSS

`CCCN(CCC)Cc1ccc(NC(=O)c2ccc(CN(Cc3ccc(CC)cn3)Cc3ncc[nH]3)cc2)cc1` [Compound No. 102, N-(4-dipropylaminomethyl-phenyl)-4-{[(5-ethyl-pyridin-2-ylmethyl)-(1H-imidazol-2-ylmethyl)-amino]-methyl}-benzamide]: the pEC50 in assay [1] is 8.52. The inhibition at 0.1 µM on CXCR4 was 98.4%.

`CCCN(CCC)Cc1ccc(NC(=O)c2ccc(CN(Cc3ncc[nH]3)Cc3ncccc3OCC)cc2)cc1` [Compound No. 59, N-(4-dipropylaminomethylphenyl)-4-{[(1H-imidazol-2-ylmethyl)-(3-ethoxypyridin-2-ylmethyl)-amino]-methyl}-benzamide]: in assay [1], the pEC50 is 7.62. Also, the inhibition at 0.1 µM on CXCR4 was determined as 98.2%.

With `CCCN(CCC)Cc1ccc(NC(=O)c2ccc(CN(Cc3ccc(C)cn3)Cc3ncc[nH]3)cc2)cc1` [Compound No. 56, N-(4-dipropylaminomethylphenyl)-4-{[(1H-imidazol-2-ylmethyl)-(5-methylpyridin-2-ylmethyl)-amino]-methyl}-benzamide], in assay [1], the pEC50 is 8.52. Besides, the inhibition at 0.1 µM at CXCR4 amounted to 98.8%.

As to `CCCN(CCC)Cc1ccc(NC(=O)c2ccc(CN(Cc3ccncc3)Cc3ncc[nH]3)cc2)cc1` [Compound No. 58, N-(4-dipropylaminomethylphenyl)-4-{[(1H-imidazol-2-ylmethyl)-(pyridin-4-ylmethyl)-amino]-methyl}-benzamide], in assay [1], the pEC50 was 7.01. Further, the inhibition at 0.1 µM at CXCR4 worked out at 18.6%.

For `CCCN(CCC)Cc1ccc(NC(=O)c2ccc(CN(Cc3nc[nH]n3)Cc3ncc[nH]3)cc2)cc1` [Compound No. 114, N-(4-di-n-propylaminomethyl-phenyl)-4-{[(1H-imidazol-2-ylmethyl)-(1H-[1,2,4]-triazol-3-ylmethyl)-amino]-methyl}-benzamide], in assay [1], the pEC50 is 7.05. For the same molecule, the inhibition at 0.1 µM on CXCR4 was 96.4%.

For `CCCN(CCC)c1ccc(NC(=O)c2ccc(CN(Cc3ncc[nH]3)Cc3ncc[nH]3)cc2)cc1` [Compound No. 15, 4-{[bis(1H-imidazol-2-ylmethyl)-amino]-methyl}-N-(4-dipropylaminophenyl)-benzamide], the inhibition at 0.1 µM on CXCR4 was 46.9%.

With `CCCN(CCC)Cc1ccc(NC(=O)c2ccc(CN(Cc3ncc[nH]3)Cc3nccn3CCC)cc2)cc1` [Compound No. 92, N-(4-dipropylaminomethylphenyl)-4-{[(1H-imidazol-2-ylmethyl)-(1-propyl-1H-imidazol-2-ylmethyl)-amino]-methyl}-benzamide], the negative logarithm of the EC50 (pEC50) in assay [1] was 7.32.

With `CCCN(CCC)Cc1cccc(NC(=O)c2ccc(CN(Cc3ncc[nH]3)Cc3ncc[nH]3)cc2)c1` [Compound No. 33, 4-{[bis(1H-imidazol-2-ylmethyl)-amino]-methyl}-N-(3-dipropylaminomethylphenyl)-benzamide], the pEC50 in assay [1] is 7.34. Further, the inhibition at 0.1 µM at CXCR4 came out at 97.8%.

As to `CCCN(CCC)Cc1ccc(NC(=O)c2ccc(CN(Cc3ccc4ccccc4n3)Cc3ncc[nH]3)cc2)cc1` [Compound No. 55, N-(4-dipropylaminomethylphenyl)-4-{[(1H-imidazol-2-ylmethyl)-(quinolin-2-ylmethyl)-amino]-methyl}-benzamide], the pEC50 in assay [1] was 6.20. At CXCR4, the inhibition at 0.1 µM came to 21%.

Take `CCCN(CCC)Cc1ccc(NC(=O)c2ccc(CN(Cc3nccn3C)Cc3nccn3C)cc2)cc1` [Compound No. 41, 4-{[bis(1-methyl-1H-imidazol-2-ylmethyl)-amino]-methyl}-N-(4-dipropylaminomethylphenyl)-benzamide]: the pEC50 in assay [1] is 8.52.

Consider `CCCN(CCC)Cc1ccc(NC(=O)c2ccc(CN(Cc3nc[nH]n3)Cc3nccn3C)cc2)cc1` [Compound No. 123, N-(4-di-n-propylaminomethyl-phenyl)-4-{[(1-methyl-imidazol-2-ylmethyl)-(1H-[1,2,4]-triazol-3-ylmethyl)-amino]-methyl}-benzamide], for which the negative-log EC50 (pEC50) in assay [1] is 7.17.

For `CCCN(CCC)Cc1ccc(NC(=O)c2ccc(CN(Cc3cc(C)ccn3)Cc3ncc[nH]3)cc2)cc1` [Compound No. 78, N-(4-dipropylaminomethylphenyl)-4-{[N-(1H-imidazol-2-ylmethyl)-(4-methylpyridin-2-ylmethyl)-amino]-methyl}-benzamide], in assay [1], the pEC50 was 7.72.

Consider `CCCN(CCC)Cc1ccc(NC(=O)c2ccc(CN(Cc3cc4ccccc4cn3)Cc3ncc[nH]3)cc2)cc1` [Compound No. 47, N-(4-dipropylaminomethylphenyl)-4-{[(1H-imidazol-2-ylmethyl)-(isoquinolin-3-ylmethyl)-amino]-methyl}-benzamide], for which, in assay [1], the pEC50 was 7.70. Also, the inhibition at 0.1 µM on CXCR4 was 98.8%.

Take `CCCN(CCC)Cc1ccc(NC(=O)c2ccc(CN(Cc3ncc[nH]3)Cc3ncccc3C)cc2)cc1` [Compound No. 53, N-(4-dipropylaminomethylphenyl)-4-{[(1H-imidazol-2-ylmethyl)-(3-methylpyridin-2-ylmethyl)-amino]-methyl}-benzamide]: the pEC50 in assay [1] was 8.05. The inhibition at 0.1 µM at CXCR4 was found to be 97.7%.

For the molecule `O=C(Nc1ccc(CNC2CCCCC2)cc1)c1ccc(CN(Cc2ncc[nH]2)Cc2ncc[nH]2)cc1` [Compound No. 89, 4-{[bis(1H-imidazol-2-ylmethyl)-amino]-methyl}-N-(4-cyclohexylaminomethylphenyl)-benzamide], the pEC50 in assay [1] is 8.05.

Turning to `CCCN(CCC)Cc1ccc(NC(=O)c2ccc(CN(Cc3ncc[nH]3)Cc3nccn3CC)cc2)cc1` [Compound No. 91, N-(4-dipropylaminomethylphenyl)-4-{[(1-ethyl-1H-imidazol-2-ylmethyl)-(1H-imidazol-2-ylmethyl)-amino]-methyl}-benzamide], in assay [1], the pEC50 was 7.82.

Consider `CCCN(CCC)Cc1ccc(NC(=O)c2ccc(CN(Cc3ncc[nH]3)Cc3ncc(C)c(OC)c3C)cc2)cc1` [Compound No. 64, N-(4-dipropylaminomethylphenyl)-4-{[(1H-imidazol-2-ylmethyl)-(4-methoxy-3,5-dimethylpyridin-2-ylmethyl)-amino]-methyl}-benzamide], for which, in assay [1], the pEC50 was 7.74. For the same molecule, on CXCR4, the inhibition at 0.1 µM was 100%.

Turning to `Cn1ccnc1CN(Cc1ccc(C(=O)Nc2ccc(CNC3CCCCC3)cc2)cc1)Cc1ncc[nH]1` [Compound No. 88, N-(4-cyclohexylaminomethylphenyl)-4-{[(1H-imidazol-2-ylmethyl)-(1-methyl-1H-imidazol-2-ylmethyl)-amino]-methyl}-benzamide], the pEC50 in assay [1] was 8.30. At CXCR4, the inhibition at 0.1 µM worked out at 99%.

As to `CCCN(CCC)Cc1ccc(NC(=O)c2ccc(CN(Cc3ccc(C)cn3)Cc3nccn3C)cc2)cc1` [Compound No. 76, N-(4-dipropylaminomethylphenyl)-4-{[(1-methyl-1H-imidazol-2-ylmethyl)-(5-methylpyridin-2-ylmethyl)-amino]-methyl}-benzamide], the pEC50 in assay [1] was 8.15.

As for `CCCN(CCC)Cc1ccc(NC(=O)c2ccc(CN(Cc3ncc[nH]3)Cc3nccn3CCO)cc2)cc1` [Compound No. 94, N-(4-dipropylaminomethylphenyl)-4-({[1-(2-hydroxyethyl)-1H-imidazol-2-ylmethyl]-(1H-imidazol-2-ylmethyl)-amino}-methyl)-benzamide], in assay [1], the negative-log EC50 (pEC50) was 8.52. On CXCR4, the inhibition at 0.1 µM turned out to be 100%.

Take `CCCN(CCC)Cc1ccc(NC(=O)c2ccc(CN(Cc3ccccn3)Cc3ncc[nH]3)cc2)cc1` [Compound No. 48, N-(4-dipropylaminomethylphenyl)-4-{[(1H-imidazol-2-ylmethyl)-(pyridin-2-ylmethyl)-amino]-methyl}-benzamide]: the pEC50 in assay [1] is 7.66. At CXCR4, the inhibition at 0.1 µM was 97.7%.

Take `CCCN(CCC)Cc1ccc(NC(=O)c2ccc(CN(Cc3ncc[nH]3)Cc3ncc(C)cc3C)cc2)cc1` [Compound No. 101, 4-{[(3,5-dimethyl-pyridin-2-ylmethyl)-(1H-imidazol-2-ylmethyl)-amino]-methyl}-N-(4-dipropylaminomethyl-phenyl)-benzamide]: in assay [1], the pEC50 is 8.30. Moreover, on CXCR4, the inhibition at 0.1 µM came out at 99.1%.

For `CCCN(CCC)Cc1ccc(NC(=O)c2ccc(CN(Cc3ncc[nH]3)Cc3ncc[nH]3)c3ccccc23)cc1` [Compound No. 36, 4-{[bis(1H-imidazol-2-ylmethyl)-amino]-methyl}-naphtalene-1-carboxylic acid (4-dipropylaminomethylphenyl)-amide], the pEC50 in assay [1] was 6.30. Further, at CXCR4, the inhibition at 0.1 µM amounted to 89.6%.

`CCCN(CCC)Cc1ccc(NC(=O)c2ccc(CN(Cc3ncc[nH]3)Cc3nccc4ccccc34)cc2)cc1` [Compound No. 63, N-(4-dipropylaminomethylphenyl)-4-{[(1H-imidazol-2-ylmethyl)-(isoquinolin-1-ylmethyl)-amino]-methyl}-benzamide]: the pEC50 in assay [1] is 7.09. Moreover, the inhibition at 0.1 µM at CXCR4 turned out to be 14.7%.

The values are drawn from patent publication US7833991B2, “Amine compound and use thereof” (Kureha Corporation, priority 2002, dated 2010).
